Experimental data published in ChEMBL document CHEMBL5331134, “Identification of Brain-Penetrant ATP-Competitive mTOR Inhibitors for CNS Syndromes” (J Med Chem, 2023).

Assay: In vivo inhibition of phosphorylation of S6 at serine 240/244 residues in C57BL/6 mouse brain at 3 to 10 mg/kg, po measured after 8 hrs by Western blotting analysis
Assay type: organism-based
Details: dose 3-10 mg/kg; call rule not given here

C[C@@H]1COCCN1c1cc(N2CCOC[C@@H]2C)nc2[nH]c(-c3cscn3)nc12
inhibition (INH): Active
